Like-named read-outs stand apart in the source and are kept apart here.
Assays:
[1] = In vitro metabolic stability in human intestine S9; type: in vitro ADME; conditions: human, 37° C., 10 μM compound, 1 mg/mL S9, NADPH regeneration system, read-out: Human intestine S9 T1/2
Experimental: (§1) This example detects the metabolic stability of the compounds of the present disclosure in human (rat) plasma and intestinal S9 in vitro. In a human (rat) plasma reaction system, 990 μl of human (rat) plasma was taken and incubated at 37° C. for 5 minutes, and 10 μl of the compound mother liquor was used to initiate the reaction. In the human (rat) intestinal S9 stability experiment, in the order shown in Table 2 below, the samples were added and incubated in a 37° C. water bath to initiate the reaction, each sample performed in triplicates. Respectively, at 1 minute, 2 minutes, 5 minutes, 15 minutes, 30 minutes after the reaction began, 100 μL of each was taken and added to a centrifuge tube containing 400 μL of 0° C. precooled internal standard working solution. The reaction was terminated, vortexed and mixed for 1 minute, centrifuged at 10000×g for 10 minutes in a 4° C. precooled high-speed centrifuge, and the supernatant was detected with HPLC. The test results were used to calculate metabolic half-life using WinNonlin (version 6.2 Pharsight, Mountain View, Calif.) with a non-compartmental model.
(§2) Compound stock solution concentration: 1 mM
(§3) Reaction matrix: human (rat) plasma, intestinal S9 purchased from Research Institute for Liver Diseases (Shanghai) Co., Ltd.

[2] = In vitro metabolic stability in human plasma; type: in vitro ADME; conditions: human, plasma, 37° C., 10 μM compound, read-out: Human plasma T1/2
Experimental: as §1, §2, §3

[3] = In vitro metabolic stability in rat plasma; type: in vitro ADME; conditions: rat, plasma, 37° C., 10 μM compound, read-out: Rat plasma T1/2
Experimental: as §1, §2, §3

[4] = In vitro metabolic stability in rat intestine S9; type: in vitro ADME; conditions: rat, 37° C., 10 μM compound, 1 mg/mL S9, NADPH regeneration system, read-out: Rat intestine S9 T1/2
Experimental: as §1, §2, §3

[5] = Determination of solubility in deionized water (HPLC, external standard); conditions: 25 °C, water, thermodynamic from solid
[6] = Solid stability test (stability chamber, HPLC total impurity); type: physicochemical
[7] = test system: Candida albicans ATCC10231; assay: Systemic fungal infection in mice, intragastric administration; type: in vivo, ICR mice; conditions: Candida albicans, ATCC10231, po
Experimental: (§4) ICR mice, weighing 18-22 g, male, provided by Hubei Experimental Animal Center.
Prior to the experiment, a small amount of Candida albicans was picked from an SDA medium kept at 4° C. with an inoculation loop and inoculated into 1 ml YPD culture medium, cultured at 30° C. with 200 rpm shaking and activated for 16 hours, so that the fungus was in the late stage of exponential growth. Counted with a hemocytometer and the fungal solution concentration was adjusted to 1×10^3 to 5×10^3 CFU/ml with RPMI1640 medium. Monoclonal Candida albicans on SDA plate was picked up, inoculated into 1 ml YPD (Yeast Extract Peptone Dextrose Medium, the same below) culture medium, cultured at 35° C., 200 rpm for 16 hours until late exponential growth phase. Candida albicans was inoculated into fresh medium for culturing for 6 hours at 1%, centrifuged at 1000×g for 5 minutes, washed with physiological saline three times until the supernatant was colorless, counted with a hemocytometer, and the cell concentration was adjusted to 5×10^6 cells/ml. A tail vein injection of 0.1 ml/10 g caused a systemic fungal infection in mice. […] A total of 7 days of observations were performed. All dead mice were burned with ethanol.

[8] = test system: Candida albicans ATCC10231; assay: Systemic fungal infection in mice, intravenous administration; type: in vivo, ICR mice
Experimental: as §4
Prior to the experiment, a small amount of Candida albicans was picked from an SDA (sacharomyces agar, the same below) medium kept at 4° C. with an inoculation loop and inoculated into 1 ml YPD (Yeast Extract Peptone Dextrose Medium) culture medium, cultured at 30° C. with 200 rpm shaking and activated for 16 hours, so that the fungus was in the late stage of exponential growth. Counted with a hemocytometer and the fungal solution concentration was adjusted to 1×10^3-5×10^3 CFU/ml with RPMI1640 medium (Roswell Park Memorial Institute 1640, the same below). Monoclonal Candida albicans on SDA plate was picked up, inoculated into 1 ml YPD (Yeast Extract Peptone Dextrose Medium, the same below) culture medium, cultured at 35° C., 200 rpm for 16 hours until late exponential growth phase. Candida albicans was inoculated into fresh medium for culturing for 6 hours at 1%, centrifuged at 1000×g for 5 minutes, washed with physiological saline three times until the supernatant was colorless, counted with a hemocytometer, and the cell concentration was adjusted to 5×10^6 cells/ml. A tail vein injection of 0.1 ml/10 g caused a systemic fungal infection in mice. […] A total of 7 days of observations were performed. All dead mice were burned with ethanol.

[9] = 24 h, 20 mg/kg intragastric once daily for 5 days, day 1, read-out: survival rate of mice, day 1
[10] = 48 h, 20 mg/kg intragastric once daily for 5 days, day 2, read-out: survival rate of mice, day 2
[11] = 72 h, 20 mg/kg intragastric once daily for 5 days, day 3, read-out: survival rate of mice, day 3
[12] = 96 h, 20 mg/kg intragastric once daily for 5 days, day 4, read-out: survival rate of mice, day 4
[13] = 120 h, 20 mg/kg intragastric once daily for 5 days, day 5, read-out: survival rate of mice, day 5
[14] = 144 h, 20 mg/kg intragastric once daily for 5 days, day 6, read-out: survival rate of mice, day 6
[15] = 168 h, 20 mg/kg intragastric once daily for 5 days, day 7, read-out: survival rate of mice, day 7

Q: With `CC[C@@H]([C@H](C)O)n1ncn(-c2ccc(N3CCN(c4ccc(OC[C@@H]5CO[C@@](Cn6c[n+](C(C)OC(=O)N(C)c7ncccc7COC(=O)CN(C)C)cn6)(c6ccc(F)cc6F)C5)cc4)CC3)cc2)c1=O` (some centres unmarked) [ST0045] as the compound, how does the half-life at 10 µM ([1]; intestinal S9) read?
A: 33.2 ± 4.23 min

Q: What about the half-life at 10 µM [2] of the same compound?
A: 15.2 ± 3.99 min

Q: And the half-life at 10 µM [3]?
A: 11.9 ± 2.96 min

Q: What about the half-life at 10 µM ([4]; intestinal S9, pH 7.4) of the same compound?
A: 26 ± 5.69 min

Q: And the solubility at 30 min [5]?
A: > 50 mg/mL

Q: What about the “Total impurity increment in 30 days” value [6] of the same compound?
A: 1.68%

Q: For `CC[C@@H]([C@H](C)OC(=O)OCOC(=O)CCCCCOP(=O)([O-])[O-])n1ncn(-c2ccc(N3CCN(c4ccc(OC[C@@H]5CO[C@@](Cn6cncn6)(c6ccc(F)cc6F)C5)cc4)CC3)cc2)c1=O.[Na+].[Na+]` [ST0073], which half-life at 10 µM [1] is on record?
A: 16.2 ± 6.08 min

Q: And the half-life at 10 µM [2]?
A: 0.92 ± 0.11 min

Q: And the half-life at 10 µM [3]?
A: 0.75 ± 0.23 min

Q: And the responders at 20 mg/kg ([7]; 24 h, read-out: survival rate of mice, day 1, 20 mg/kg intragastric once daily for 5 days, day 1)?
A: 100%

Q: And the responders at 20 mg/kg ([7]; 48 h, read-out: survival rate of mice, day 2, 20 mg/kg intragastric once daily for 5 days, day 2)?
A: 90%

Q: What about the responders at 20 mg/kg ([7]; 72 h, read-out: survival rate of mice, day 3, 20 mg/kg intragastric once daily for 5 days, day 3) of the same compound?
A: 80%

Q: And the responders at 20 mg/kg ([7]; 96 h, read-out: survival rate of mice, day 4, 20 mg/kg intragastric once daily for 5 days, day 4)?
A: 80%

Q: And the responders at 20 mg/kg ([7]; 120 h, read-out: survival rate of mice, day 5, 20 mg/kg intragastric once daily for 5 days, day 5)?
A: 80%

Q: What about the responders at 20 mg/kg ([7]; 144 h, read-out: survival rate of mice, day 6, 20 mg/kg intragastric once daily for 5 days, day 6) of the same compound?
A: 70%

Q: And the responders at 20 mg/kg ([7]; 168 h, read-out: survival rate of mice, day 7, 20 mg/kg intragastric once daily for 5 days, day 7)?
A: 70%

Q: What about the half-life at 10 µM ([4]; pH 7.4) of the same compound?
A: 16 ± 8.96 min

Q: And the solubility at 30 min [5]?
A: > 50 mg/mL

Q: And the responders at 20 mg/kg ([8]; 24 h, read-out: survival rate of mice, day 1)?
A: 100%

Q: What about the responders at 20 mg/kg ([8]; 48 h, read-out: survival rate of mice, day 2) of the same compound?
A: 100%

Q: What about the responders at 20 mg/kg ([8]; 72 h, read-out: survival rate of mice, day 3) of the same compound?
A: 100%

Q: And the responders at 20 mg/kg ([8]; 96 h, read-out: survival rate of mice, day 4)?
A: 100%

Q: And the responders at 20 mg/kg ([8]; 120 h, read-out: survival rate of mice, day 5)?
A: 90%

Q: What about the responders at 20 mg/kg ([8]; 144 h, read-out: survival rate of mice, day 6) of the same compound?
A: 90%

Q: What about the responders at 20 mg/kg ([8]; 168 h, read-out: survival rate of mice, day 7) of the same compound?
A: 90%

Q: Which results are given for `CC[C@@H](C(C)OC(=O)OC(C)OC(=O)CCCOS(=O)(=O)[O-])n1ncn(-c2ccc(N3CCN(c4ccc(OC[C@@H]5CO[C@@](Cn6cncn6)(c6ccc(F)cc6F)C5)cc4)CC3)cc2)c1=O.[Na+]` (some centres unmarked) [ST0077]?
A: half-life at 10 µM [1]: 21.3 ± 5.09 min; half-life at 10 µM [2]: 1.97 ± 1.29 min; half-life at 10 µM [3]: 1.55 ± 0.56 min; responders at 20 mg/kg [7, 9]: 100%; responders at 20 mg/kg [7, 10]: 90%; responders at 20 mg/kg [7, 11]: 80%; responders at 20 mg/kg [7, 12]: 80%; responders at 20 mg/kg [7, 13]: 80%; responders at 20 mg/kg [7, 14]: 70%; responders at 20 mg/kg [7, 15]: 70%; half-life at 10 µM ([4]; pH 7.4): 19.3 ± 5.65 min; solubility at 30 min [5]: > 50 mg/mL; responders at 20 mg/kg ([8]; 24 h, 20 mg/kg tail vein once daily for 5 days, day 1, read-out: survival rate of mice, day 1): 100%; responders at 20 mg/kg ([8]; 48 h, 20 mg/kg tail vein once daily for 5 days, day 2, read-out: survival rate of mice, day 2): 100%; responders at 20 mg/kg ([8]; 72 h, 20 mg/kg tail vein once daily for 5 days, day 3, read-out: survival rate of mice, day 3): 100%; responders at 20 mg/kg ([8]; 96 h, 20 mg/kg tail vein once daily for 5 days, day 4, read-out: survival rate of mice, day 4): 100%; responders at 20 mg/kg ([8]; 120 h, 20 mg/kg tail vein once daily for 5 days, day 5, read-out: survival rate of mice, day 5): 90%; responders at 20 mg/kg ([8]; 144 h, 20 mg/kg tail vein once daily for 5 days, day 6, read-out: survival rate of mice, day 6): 90%; responders at 20 mg/kg ([8]; 168 h, 20 mg/kg tail vein once daily for 5 days, day 7, read-out: survival rate of mice, day 7): 90%

Q: For `CC[C@@H]([C@H](C)OC(=O)OC(C)OC(=O)CNC)n1ncn(-c2ccc(N3CCN(c4ccc(OC[C@@H]5CO[C@@](Cn6cncn6)(c6ccc(F)cc6F)C5)cc4)CC3)cc2)c1=O.Cl` (some centres unmarked) [ST0053], which half-life at 10 µM ([1]; intestinal S9) is on record?
A: 50.2 ± 5.15 min

Q: And the half-life at 10 µM [2]?
A: 19.9 ± 3.01 min

Q: And the half-life at 10 µM [3]?
A: 21.2 ± 4.52 min

Q: What about the responders at 20 mg/kg [7, 9] of the same compound?
A: 90%

Q: What about the responders at 20 mg/kg [7, 10] of the same compound?
A: 80%

Q: And the responders at 20 mg/kg [7, 11]?
A: 70%

Q: And the responders at 20 mg/kg [7, 12]?
A: 60%

Q: What about the responders at 20 mg/kg [7, 13] of the same compound?
A: 60%

Q: And the responders at 20 mg/kg [7, 14]?
A: 60%

Q: What about the responders at 20 mg/kg [7, 15] of the same compound?
A: 60%

Q: And the half-life at 10 µM ([4]; intestinal S9, pH 7.4)?
A: 48.2 ± 6.85 min

Q: And the “Total impurity increment in 30 days” value ([6]; solid, packaged, 25° C.±2° C., relative humidity 60%±2%)?
A: 0.85%

— US10517867B2, “Posaconazole derivative, pharmaceutical composition and use thereof” (priority 2016, dated 2019)
